# “And” between values parts separate entries of the source, which are not always exact repeats. Equal values may be shown once. The source made the active and inactive calls.
# Tests used:
# [1] = target: DNA dC->dU-editing enzyme APOBEC-3G (Homo sapiens, UniProt Q9HC16); type: functional;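 note: Dose-response counterscreen measuring inhibition of APOBEC3G DNA deaminase activity, run while confirming APOBEC3A inhibitors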
# [2] = target: DNA dC->dU-editing enzyme APOBEC-3A (Homo sapiens, UniProt P31941); experiment: Dose Response confirmation of small molecule APOBEC3A DNA Deaminase Inhibitors via a fluorescence-based single-stranded DNA deaminase assay. [Related pubchem assays (depositor defined):AID493011, AID493024]; type: functional
# Chain of DNA dC->dU-editing enzyme APOBEC-3A (P31941 whole entry, the tested form may be a part): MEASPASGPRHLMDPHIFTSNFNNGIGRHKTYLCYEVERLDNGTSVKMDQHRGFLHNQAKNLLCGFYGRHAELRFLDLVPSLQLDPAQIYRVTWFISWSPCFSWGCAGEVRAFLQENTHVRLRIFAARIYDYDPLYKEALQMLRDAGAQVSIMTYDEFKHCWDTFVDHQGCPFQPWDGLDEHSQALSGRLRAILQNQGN
# [3] = target: T1, Runt-related transcription factor 1/Core-binding factor subunit beta (Homo sapiens, UniProt Q01196+Q13951); experiment: Runt domain/CBFb-SMMHC interaction disruptors – biochemical, TR-FRET (AID 1438); type: protein assay
# T1 sequence (Q01196 whole entry, the tested form may be a part): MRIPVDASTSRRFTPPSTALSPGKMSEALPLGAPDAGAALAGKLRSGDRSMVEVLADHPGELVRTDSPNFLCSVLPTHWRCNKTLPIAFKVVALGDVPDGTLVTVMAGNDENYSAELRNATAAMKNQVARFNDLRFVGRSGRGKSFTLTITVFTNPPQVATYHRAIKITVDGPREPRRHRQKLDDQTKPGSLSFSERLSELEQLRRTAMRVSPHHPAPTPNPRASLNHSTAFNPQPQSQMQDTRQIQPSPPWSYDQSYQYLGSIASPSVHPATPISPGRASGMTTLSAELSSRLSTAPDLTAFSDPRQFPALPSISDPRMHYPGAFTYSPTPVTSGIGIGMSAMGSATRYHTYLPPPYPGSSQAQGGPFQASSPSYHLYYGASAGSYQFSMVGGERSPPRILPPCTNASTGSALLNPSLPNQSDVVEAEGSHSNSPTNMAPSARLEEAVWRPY
# T1 sequence (Q13951 whole entry, the tested form may be a part): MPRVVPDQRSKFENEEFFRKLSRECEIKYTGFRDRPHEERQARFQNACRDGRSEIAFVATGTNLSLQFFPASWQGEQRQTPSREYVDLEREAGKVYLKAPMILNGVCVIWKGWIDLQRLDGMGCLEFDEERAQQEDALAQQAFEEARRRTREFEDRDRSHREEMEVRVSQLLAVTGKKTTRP
# [4] = target: T1, Runt-related transcription factor 1/Core-binding factor subunit beta; experiment: disruptors of Runt domain/CBFb-SMMHC interaction – biochemical, FRET, Cerulean-Runt, Venus-CBFb-SMMHC, uHTS, […] (AID 1434); type: protein assay
# [5] = target: Type-1 angiotensin II receptor (Homo sapiens, UniProt P30556); experiment: agonist activity at AGTR1 – cell-based, uHTS hits, selectivity assay for APJ receptor agonist project, dose response (AID 488865); type: functional;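 note: beta-arrestin recruitment to AT1 measured by enzyme fragment complementation luminescence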
# Chain of Type-1 angiotensin II receptor (P30556 whole entry, the tested form may be a part): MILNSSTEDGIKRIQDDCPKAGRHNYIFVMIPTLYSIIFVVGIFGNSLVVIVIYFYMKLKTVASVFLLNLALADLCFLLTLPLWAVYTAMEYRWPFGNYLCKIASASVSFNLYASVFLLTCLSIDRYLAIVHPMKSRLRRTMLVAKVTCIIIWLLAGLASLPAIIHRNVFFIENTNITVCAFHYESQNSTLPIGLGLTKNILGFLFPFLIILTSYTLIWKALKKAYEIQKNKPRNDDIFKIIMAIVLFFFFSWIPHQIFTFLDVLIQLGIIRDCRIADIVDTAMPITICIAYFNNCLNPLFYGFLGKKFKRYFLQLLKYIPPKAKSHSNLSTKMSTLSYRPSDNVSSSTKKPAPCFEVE
# [6] = target: Low molecular weight phosphotyrosine protein phosphatase (Homo sapiens, UniProt P24666); type: functional; conditions: read-out: IC50_Mean;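 note: Dose-response confirmation assay measuring inhibition of LMPTP enzyme activity by fluorescence intensity read-out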
# Chain of Low molecular weight phosphotyrosine protein phosphatase (P24666 whole entry): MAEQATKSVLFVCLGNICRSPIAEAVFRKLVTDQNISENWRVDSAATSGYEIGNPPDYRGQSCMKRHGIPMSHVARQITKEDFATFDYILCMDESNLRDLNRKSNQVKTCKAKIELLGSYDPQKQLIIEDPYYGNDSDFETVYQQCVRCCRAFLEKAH
# [7] = target: T2, Kappa-type opioid receptor (Homo sapiens, UniProt P41145); experiment: SAR analysis of small molecule antagonists of the kappa opioid receptor via a luminescent beta-arrestin assay - Set 3. [Related pubchem assays (depositor defined):AID1777, AID1778, AID1785, AID1786, AID1966, AID2133, AID2136, AID2285, AID2495]; type: functional
# T2 sequence (P41145 whole entry): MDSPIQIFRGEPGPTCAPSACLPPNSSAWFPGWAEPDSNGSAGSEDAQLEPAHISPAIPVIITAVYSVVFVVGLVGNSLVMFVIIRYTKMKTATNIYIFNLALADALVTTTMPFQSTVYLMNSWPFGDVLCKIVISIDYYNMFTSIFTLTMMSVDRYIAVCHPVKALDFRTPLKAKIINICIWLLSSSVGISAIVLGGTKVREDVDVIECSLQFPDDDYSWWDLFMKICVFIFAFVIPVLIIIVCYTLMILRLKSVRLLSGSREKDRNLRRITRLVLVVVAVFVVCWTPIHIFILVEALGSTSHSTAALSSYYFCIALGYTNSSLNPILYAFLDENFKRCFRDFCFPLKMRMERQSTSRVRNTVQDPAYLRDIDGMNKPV
# [8] = target: Delta-type opioid receptor (Homo sapiens, UniProt P41143); experiment: SAR Analysis of Antagonists of the DOR Receptor using an Image-Based Assay - Set 3. [Related pubchem assays (depositor defined):AID1777, AID1785]; type: functional;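 note: U2OS cells expressing DOR1 and beta-arrestin GFP stimulated with 100 nM SNC80; imaging of GFP-tagged beta-arrestin moving into spots after receptor activation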
# Mu-type opioid receptor = Mu-type opioid receptor (Homo sapiens, UniProt P35372); experiment: SAR Analysis of Antagonists of the MOR Receptor using an Image-Based Assay - Set 3. [Related pubchem assays (depositor defined):AID1777, AID1785, AID1786, AID1966, AID2133, AID2136, AID2284, AID2285, AID2420]; type: functional
# Chain of Mu-type opioid receptor (P35372 whole entry): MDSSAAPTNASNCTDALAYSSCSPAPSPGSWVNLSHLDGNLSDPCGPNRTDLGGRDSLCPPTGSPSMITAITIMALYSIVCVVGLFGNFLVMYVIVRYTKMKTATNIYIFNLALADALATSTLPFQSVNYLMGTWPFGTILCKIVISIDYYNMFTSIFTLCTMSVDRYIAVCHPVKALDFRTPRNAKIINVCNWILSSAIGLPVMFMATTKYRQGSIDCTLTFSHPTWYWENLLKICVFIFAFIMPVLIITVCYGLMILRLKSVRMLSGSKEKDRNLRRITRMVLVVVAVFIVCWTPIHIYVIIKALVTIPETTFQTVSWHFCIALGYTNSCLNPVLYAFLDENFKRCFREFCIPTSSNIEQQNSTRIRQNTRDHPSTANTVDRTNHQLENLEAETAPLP
# [9] = target: T2, Kappa-type opioid receptor; experiment: SAR analysis of Antagonists of the Kappa Opioid Receptor (KOR) using an Image-Based Assay - Set 3. [Related pubchem assays (depositor defined):AID1777, AID1785]; type: functional
# cells = type: functional
# [10] = HepG2 cell cytotoxicity, dose response, cytotoxicity control for non-replicating M. tuberculosis project (AID 489018); type: functional; conditions: Mycobacterium tuberculosis
# [11] = microbe, parasite or virus in culture; type: functional; conditions: Mycobacterium tuberculosis
# [12] = THP-1 cell cytotoxicity, dose response, cytotoxicity control for non-replicating M. tuberculosis project (AID 489025); type: functional
# [13] = Vero E6 cell cytotoxicity, dose response, cytotoxicity control for non-replicating M. tuberculosis project, secondary assay (AID 492998); type: functional, VeroE6; conditions: Vero C1008
# [14] = target: T3, Alkaline phosphatase, tissue-nonspecific isozyme (Homo sapiens, UniProt P05186); experiment: potency against alkaline phosphatase TNAP – biochemical, luminescent, dose response, SAR follow-up (AID 1056)
# T3 sequence (P05186 whole entry): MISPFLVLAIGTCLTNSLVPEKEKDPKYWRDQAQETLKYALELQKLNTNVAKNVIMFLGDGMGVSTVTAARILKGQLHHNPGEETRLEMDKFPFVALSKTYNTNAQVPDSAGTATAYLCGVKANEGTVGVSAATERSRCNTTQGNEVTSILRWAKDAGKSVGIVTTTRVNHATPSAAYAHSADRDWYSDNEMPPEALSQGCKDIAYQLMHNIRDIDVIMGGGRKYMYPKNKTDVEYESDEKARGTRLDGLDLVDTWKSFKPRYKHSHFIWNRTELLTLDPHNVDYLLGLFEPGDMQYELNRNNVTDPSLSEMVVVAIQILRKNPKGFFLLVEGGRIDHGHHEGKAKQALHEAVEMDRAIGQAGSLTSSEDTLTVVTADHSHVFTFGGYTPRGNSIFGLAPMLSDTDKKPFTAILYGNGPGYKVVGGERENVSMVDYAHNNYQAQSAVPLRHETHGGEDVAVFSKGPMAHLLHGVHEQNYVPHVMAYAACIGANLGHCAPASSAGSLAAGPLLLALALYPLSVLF
# [15] = target: Alkaline phosphatase, placental type (Homo sapiens, UniProt P05187); experiment: human placental alkaline phosphatase inhibition – biochemical, luminescence, confirmation (AID 1512); type: functional
# Chain of Alkaline phosphatase, placental type (P05187 whole entry, the tested form may be a part): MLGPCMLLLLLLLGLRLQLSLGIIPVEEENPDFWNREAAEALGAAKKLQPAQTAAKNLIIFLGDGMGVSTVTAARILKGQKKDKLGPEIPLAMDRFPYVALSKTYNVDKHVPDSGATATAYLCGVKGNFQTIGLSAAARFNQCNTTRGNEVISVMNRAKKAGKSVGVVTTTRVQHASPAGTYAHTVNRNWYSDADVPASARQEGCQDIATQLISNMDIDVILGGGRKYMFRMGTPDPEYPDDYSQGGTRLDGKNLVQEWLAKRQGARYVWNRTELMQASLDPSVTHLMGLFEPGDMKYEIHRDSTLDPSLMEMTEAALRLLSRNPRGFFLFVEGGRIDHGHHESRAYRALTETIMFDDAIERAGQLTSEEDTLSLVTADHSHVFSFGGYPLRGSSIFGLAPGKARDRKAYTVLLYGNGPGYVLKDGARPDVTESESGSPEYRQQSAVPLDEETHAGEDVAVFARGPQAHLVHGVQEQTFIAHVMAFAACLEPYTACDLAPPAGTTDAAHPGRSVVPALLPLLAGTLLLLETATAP
# [16] = target: T4, Polyadenylate-binding protein 1 (Homo sapiens, UniProt P11940); experiment: MLLE domain peptide-binding blockers, IC50 – biochemical, fluorescence polarization, FITC-PAM2 peptide, dose response (AID 602259); type: functional; conditions: read-out: IC50_Mean
# T4 sequence (P11940 whole entry, the tested form may be a part): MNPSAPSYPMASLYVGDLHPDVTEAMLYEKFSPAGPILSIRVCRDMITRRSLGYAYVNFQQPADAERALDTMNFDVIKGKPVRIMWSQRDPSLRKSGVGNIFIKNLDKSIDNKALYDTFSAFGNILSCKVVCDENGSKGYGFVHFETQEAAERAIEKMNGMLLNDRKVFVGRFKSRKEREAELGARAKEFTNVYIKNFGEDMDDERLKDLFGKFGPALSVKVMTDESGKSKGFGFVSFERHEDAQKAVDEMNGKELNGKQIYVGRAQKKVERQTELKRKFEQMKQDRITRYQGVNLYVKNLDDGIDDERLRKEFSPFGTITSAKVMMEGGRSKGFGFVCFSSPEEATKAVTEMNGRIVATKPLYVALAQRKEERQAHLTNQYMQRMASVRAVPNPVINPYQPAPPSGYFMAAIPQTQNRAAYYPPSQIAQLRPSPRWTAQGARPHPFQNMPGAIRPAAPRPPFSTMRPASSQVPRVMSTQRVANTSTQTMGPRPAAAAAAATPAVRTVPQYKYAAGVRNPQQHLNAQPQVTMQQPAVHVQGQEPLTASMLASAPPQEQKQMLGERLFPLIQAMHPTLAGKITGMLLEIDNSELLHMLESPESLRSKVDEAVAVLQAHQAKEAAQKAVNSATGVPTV
# Perilipin-1/ABHD5 = Perilipin-1/ABHD5 (Homo sapiens, UniProt O60240+Q8WTS1); experiment: Luminescence-based biochemical high throughput dose response assay for inhibitors of the interaction of the lipase co-activator protein, abhydrolase domain containing 5 (ABHD5) with perilipin-1 (PLIN1) (2K validation set). [Related pubchem assays (depositor defined):AID493027, AID493057]
# Genome polyprotein = Genome polyprotein (dengue virus type 2, UniProt P29990); experiment: flavivirus cap methylation enzyme inhibition – biochemical, confirmation dose response, primary screen (AID 588689); type: functional
# Chain of Genome polyprotein (P29990 2492-3391 limits assumed): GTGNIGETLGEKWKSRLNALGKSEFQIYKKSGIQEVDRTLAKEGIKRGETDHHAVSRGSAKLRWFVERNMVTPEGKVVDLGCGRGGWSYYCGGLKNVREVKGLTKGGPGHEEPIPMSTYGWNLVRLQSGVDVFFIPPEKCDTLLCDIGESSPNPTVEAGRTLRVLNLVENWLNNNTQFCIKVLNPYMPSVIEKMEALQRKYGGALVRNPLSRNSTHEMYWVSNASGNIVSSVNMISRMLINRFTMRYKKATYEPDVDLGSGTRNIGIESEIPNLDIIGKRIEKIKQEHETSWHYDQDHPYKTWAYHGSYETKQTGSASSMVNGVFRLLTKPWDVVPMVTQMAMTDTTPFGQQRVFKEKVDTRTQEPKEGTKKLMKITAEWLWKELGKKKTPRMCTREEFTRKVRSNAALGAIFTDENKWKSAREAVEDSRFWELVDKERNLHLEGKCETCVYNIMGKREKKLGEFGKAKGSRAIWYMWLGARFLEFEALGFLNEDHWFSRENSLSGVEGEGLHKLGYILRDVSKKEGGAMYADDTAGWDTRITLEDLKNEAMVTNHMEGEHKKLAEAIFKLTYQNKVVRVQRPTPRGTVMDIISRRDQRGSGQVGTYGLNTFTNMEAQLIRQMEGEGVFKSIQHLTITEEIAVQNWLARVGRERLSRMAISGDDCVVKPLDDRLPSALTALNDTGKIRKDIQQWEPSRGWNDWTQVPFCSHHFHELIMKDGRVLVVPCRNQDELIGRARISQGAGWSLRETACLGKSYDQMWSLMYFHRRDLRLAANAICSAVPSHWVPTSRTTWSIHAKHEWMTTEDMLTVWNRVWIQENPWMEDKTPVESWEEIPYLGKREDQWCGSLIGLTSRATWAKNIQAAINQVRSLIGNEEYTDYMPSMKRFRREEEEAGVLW
# [17] = target: T5, Mannose-6-phosphate isomerase (Homo sapiens, UniProt P34949); experiment: MPI inhibition at elevated mannose 6-phosphate – biochemical, fluorescence intensity, high mannose 6-phosphate, primary screen (AID 1220)
# T5 sequence (P34949 whole entry): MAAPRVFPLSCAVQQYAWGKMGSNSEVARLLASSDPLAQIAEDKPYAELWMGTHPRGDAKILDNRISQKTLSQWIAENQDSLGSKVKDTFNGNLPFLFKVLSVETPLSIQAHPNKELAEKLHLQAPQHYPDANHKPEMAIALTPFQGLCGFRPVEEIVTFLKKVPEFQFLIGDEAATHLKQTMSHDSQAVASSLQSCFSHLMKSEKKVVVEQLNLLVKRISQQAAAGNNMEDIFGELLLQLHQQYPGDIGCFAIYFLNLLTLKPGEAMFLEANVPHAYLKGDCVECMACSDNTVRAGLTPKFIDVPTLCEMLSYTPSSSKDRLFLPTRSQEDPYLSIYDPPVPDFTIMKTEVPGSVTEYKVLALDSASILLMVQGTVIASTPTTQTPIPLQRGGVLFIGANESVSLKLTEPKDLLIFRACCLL
# [18] = target: 1-acylglycerol-3-phosphate O-acyltransferase ABHD5/Perilipin-5 (Homo sapiens, UniProt Q00G26+Q8WTS1); experiment: Luminescence-based biochemical high throughput dose response assay for inhibitors of the interaction of the lipase co-activator protein, abhydrolase domain containing 5 (ABHD5) with perilipin-5 (MLDP; PLIN5) (2K validation set). [Related pubchem assays (depositor defined):AID493035, AID493241]
# [19] = target: T4, Polyadenylate-binding protein 1; experiment: MLLE binding blockers, Cy5 peptide tracer – biochemical, fluorescence polarization, Cy5-PAM2 peptide, secondary, miRNA deadenylation inhibitor project, dose response (AID 602260); type: functional; conditions: read-out: IC50_Mean
# Chain of DNA dC->dU-editing enzyme APOBEC-3G (Q9HC16 whole entry): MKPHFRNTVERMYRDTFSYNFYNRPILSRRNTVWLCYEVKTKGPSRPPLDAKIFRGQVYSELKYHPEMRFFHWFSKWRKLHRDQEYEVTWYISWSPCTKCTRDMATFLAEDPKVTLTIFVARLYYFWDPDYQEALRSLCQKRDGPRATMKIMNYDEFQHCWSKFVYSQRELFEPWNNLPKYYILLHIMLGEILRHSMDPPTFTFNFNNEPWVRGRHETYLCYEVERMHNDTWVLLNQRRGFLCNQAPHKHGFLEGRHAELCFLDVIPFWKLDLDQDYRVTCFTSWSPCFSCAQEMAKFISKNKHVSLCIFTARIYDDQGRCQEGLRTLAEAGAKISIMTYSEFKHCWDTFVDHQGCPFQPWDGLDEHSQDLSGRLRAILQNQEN
compound,measurement,setting,value
Cc1nc(O)c(C#N)c(C)c1CCC(=O)Nc1cc(S(C)(=O)=O)ccc1Cl,IC50,[1],11.7 µM (active)
same,IC50,[2],9.97 µM (active)
Cc1cc(C)cc(Oc2nc3c(C)cccn3c(=O)c2/C=C(\C#N)C(=O)NC2CCS(=O)(=O)C2)c1 (stereo not drawn),IC50,[3],68 µM (inactive)
same,IC50,[4],4.95 µM (active)
COc1cc2c(cc1NC(=O)c1cccc([N+](=O)[O-])c1)oc1ccccc12,EC50,[5],> 100 µM (inactive)
same,IC50,[6],14.2 µM (active)
O=C(Cn1c(=O)c2cccn2c2ccc(F)cc21)NCCCN1CCN(c2ccc(F)cc2)CC1,IC50,[7],> 20 µM (inactive)
same,IC50,[8],> 32 µM (inactive)
same,IC50,Mu-type opioid receptor,> 32 µM (inactive)
same,IC50,[9],14.6 µM (inactive)
COc1cccc(-c2nnc(NC(=O)c3ccc(S(=O)(=O)N4CCOCC4)cc3)o2)c1,IC50,cells,22.8 µM (active)
same,CC50,[10],13.9 µM (active)
same,CC50,[11],19.7 µM (active)
same,CC50,[12],8.51 µM (active)
same,CC50,[13],7.2 µM (active)
COC(=O)c1cc(-c2c[nH]c3ccccc23)[nH]n1,IC50,[14],1.67 µM (active) and 906 nM (active)
same,IC50,[15],> 100 µM (inactive)
COc1cc(/C=C2\C(=O)NC(=O)N(c3ccccc3)C2=O)c([N+](=O)[O-])cc1OC,IC50,[16],42.8 µM (inactive)
same,IC50,Perilipin-1/ABHD5,3.29 µM (active)
same,IC50,Genome polyprotein,17.3 µM (active)
same,IC50,[17],> 50 µM (not active)
same,IC50,[18],3.41 µM (active)
same,IC50,[19],53.9 µM (inactive)

# — ChEMBL document CHEMBL1201862, “PubChem BioAssay data set” (2004)
